Structure (SMILES)	melting point [°C]
CCOP(=O)(COC(=O)c1sc(C(C)(C)c2c(Cl)cc(-n3ncc(=O)[nH]c3=O)cc2Cl)nc1-c1ccccc1)OCC	88
CC(C)(c1nc(-c2ccccc2)c(CC(=O)OC2CCOC2=O)s1)c1c(Cl)cc(-n2ncc(=O)[nH]c2=O)cc1Cl (centres unmarked) [Compound 1]	72
CCCCCCCCCCCCCCCOC(=O)Cc1sc(C(C)(C)c2c(Cl)cc(-n3ncc(=O)[nH]c3=O)cc2Cl)nc1-c1ccccc1 [Compound 2]	80
CC(C)(c1nc(-c2ccccc2)c(C(=O)OC2CCOC2=O)s1)c1c(Cl)cc(-n2ncc(=O)[nH]c2=O)cc1Cl (centres unmarked) [Compound 3]	208
CC(C)(c1nc(-c2ccccc2)c(C(=O)SC2CCOC2=O)s1)c1c(Cl)cc(-n2ncc(=O)[nH]c2=O)cc1Cl (centres unmarked) [Compound 4]	212
CC(C)(c1nc(-c2cccs2)c(CC(=O)OC2CCOC2=O)s1)c1c(Cl)cc(-n2ncc(=O)[nH]c2=O)cc1Cl (centres unmarked) [Compound 5]	110
CCOC(=O)C(Cl)(Cl)c1ccccc1-c1nc(C(C)(C)c2c(Cl)cc(-n3ncc(=O)[nH]c3=O)cc2Cl)no1 [Compound 6]	157
Cc1oc(=O)oc1CSC(=O)c1sc(C(C)(C)c2c(Cl)cc(-n3ncc(=O)[nH]c3=O)cc2Cl)nc1-c1ccccc1 [Compound 71]	97
Cc1oc(=O)oc1COC(=O)Cc1sc(C(C)(C)c2c(Cl)cc(-n3ncc(=O)[nH]c3=O)cc2Cl)nc1-c1ccccc1 [Compound 72]	149
CN(C)S(=O)(=O)NCCOC(=O)c1sc(C(C)(C)c2c(Cl)cc(-n3ncc(=O)[nH]c3=O)cc2Cl)nc1-c1ccccc1 [Compound 76]	150
CC(C)(c1nc(-c2ccccc2)c(C(=O)OCCNS(=O)(=O)N2CCCCC2)s1)c1c(Cl)cc(-n2ncc(=O)[nH]c2=O)cc1Cl [Compound 77]	126
CC(C)(c1nc(-c2ccccc2)c(C(=O)OCC(F)(F)F)s1)c1c(Cl)cc(-n2ncc(=O)[nH]c2=O)cc1Cl [Compound 78]	180
CC(C)(c1nc(-c2ccccc2)c(C(=O)OCCN2CCN(S(N)(=O)=O)CC2)s1)c1c(Cl)cc(-n2ncc(=O)[nH]c2=O)cc1Cl [Compound 79]	133
CCOC(=O)CCc1sc(C(C)(C)c2c(Cl)cc(-n3ncc(=O)[nH]c3=O)cc2Cl)nc1-c1ccccc1 [Compound 80]	155
CC(C)(c1nc(-c2ccccc2)c(CCC(=O)OC2CCOC2=O)s1)c1c(Cl)cc(-n2ncc(=O)[nH]c2=O)cc1Cl (centres unmarked) [Compound 81]	190
COCCOCCOC(=O)c1sc(C(C)(C)c2c(Cl)cc(-n3ncc(=O)[nH]c3=O)cc2Cl)nc1-c1ccccc1 [Compound 82]	151
CN(C)S(=O)(=O)N1CCN(CCO)CC1 [Compound 83]	186
CN(C)S(=O)(=O)N1CCN(CCOC(=O)c2sc(C(C)(C)c3c(Cl)cc(-n4ncc(=O)[nH]c4=O)cc3Cl)nc2-c2ccccc2)CC1 [Compound 84]	220
C=CCOC(=O)c1sc(C(C)(C)c2c(Cl)cc(-n3ncc(=O)[nH]c3=O)cc2Cl)nc1-c1ccccc1 [Compound 87]	172

Structure (SMILES)	melting point [°C]
C#CCOC(=O)c1sc(C(C)(C)c2c(Cl)cc(-n3ncc(=O)[nH]c3=O)cc2Cl)nc1-c1ccccc1 [Compound 88]	180
CON(C)C(=O)c1sc(C(C)(C)c2c(Cl)cc(-n3ncc(=O)[nH]c3=O)cc2Cl)nc1-c1ccccc1 [Compound 89]	112
CC1(C)OCC(COC(=O)c2sc(C(C)(C)c3c(Cl)cc(-n4ncc(=O)[nH]c4=O)cc3Cl)nc2-c2ccccc2)O1 (centres unmarked) [Compound 92]	163
COCCOC(=O)OC(C)OC(=O)c1sc(C(C)(C)c2c(Cl)cc(-n3ncc(=O)[nH]c3=O)cc2Cl)nc1-c1ccccc1 (centres unmarked) [Compound 99]	88
C[S+]([O-])CSC(=O)Cc1sc(C(C)(C)c2c(Cl)cc(-n3ncc(=O)[nH]c3=O)cc2Cl)nc1-c1ccccc1 (centres unmarked) [Compound 104]	154
CC(=O)c1sc(C(C)(C)c2c(Cl)cc(-n3ncc(=O)[nH]c3=O)cc2Cl)nc1-c1ccccc1 [Compound 105]	212
Cc1nc(C(C)(C)c2c(Cl)cc(-n3ncc(=O)[nH]c3=O)cc2Cl)sc1C(=O)c1ccccc1 [Compound 107]	174
CCCC(=O)OCOC(=O)c1sc(C(C)(C)c2c(Cl)cc(-n3ncc(=O)[nH]c3=O)cc2Cl)nc1-c1ccccc1 [Compound 108]	146
CC(OC(=O)OCCS(C)(=O)=O)OC(=O)c1sc(C(C)(C)c2c(Cl)cc(-n3ncc(=O)[nH]c3=O)cc2Cl)nc1-c1ccccc1 (centres unmarked) [Compound 110]	104
CC(C)(c1nc(-c2ccccc2)c(C(=O)OCC2COC(=S)O2)s1)c1c(Cl)cc(-n2ncc(=O)[nH]c2=O)cc1Cl (centres unmarked) [Compound 111]	130
CC(C)(c1nc(-c2ccccc2)c(CSC2CCOC2=O)s1)c1c(Cl)cc(-n2ncc(=O)[nH]c2=O)cc1Cl (centres unmarked) [Compound 116]	100
COC(=O)C(CCCO)OC(=O)c1sc(C(C)(C)c2c(Cl)cc(-n3ncc(=O)[nH]c3=O)cc2Cl)nc1-c1ccccc1 (centres unmarked) [Compound 121]	100
CC(C)(c1nc(-c2ccccc2)c(C(=O)OCOC(=O)C2CCCCC2)s1)c1c(Cl)cc(-n2ncc(=O)[nH]c2=O)cc1Cl [Compound 125]	130
CN1CCN(CCOC(=O)c2sc(C(C)(C)c3c(Cl)cc(-n4ncc(=O)[nH]c4=O)cc3Cl)nc2-c2ccccc2)S1(=O)=O [Compound 128]	112
CC(C)(c1nc(-c2ccccc2)c(C(=O)OC2COC(=O)C2O)s1)c1c(Cl)cc(-n2ncc(=O)[nH]c2=O)cc1Cl (centres unmarked) [Compound 131]	144
CC(C)(c1nc(-c2ccccc2)c(C(=O)OC2CCCC(OC(=O)c3sc(C(C)(C)c4c(Cl)cc(-n5ncc(=O)[nH]c5=O)cc4Cl)nc3-c3ccccc3)C2)s1)c1c(Cl)cc(-n2ncc(=O)[nH]c2=O)cc1Cl (centres unmarked) [Compound 139]	180
CC(C)(c1nc(-c2ccccc2)c(C(=O)OC2CCCC(O)C2)s1)c1c(Cl)cc(-n2ncc(=O)[nH]c2=O)cc1Cl (centres unmarked) [Compound 140]	175
CC(OC(=O)c1sc(C(C)(C)c2c(Cl)cc(-n3ncc(=O)[nH]c3=O)cc2Cl)nc1-c1ccccc1)OC(=O)C(c1ccccc1)C1CCCC1 (centres unmarked) [Compound 141]	110
CC(C)(c1nc(-c2ccccc2)c(C(=O)OCCN2CCN(S(=O)(=O)N3CCCC3)CC2)s1)c1c(Cl)cc(-n2ncc(=O)[nH]c2=O)cc1Cl [Compound 146]	196

Source: patent US6911444B2, “Non-steroidal IL-5 inhibitors, processes and intermediates for their preparation and pharmaceutical compositions comprising said inhibitors” (Janssen Pharmaceutics N.V., priority 1999, dated 2005)
